Patent publication US11072812B2, “Substrates for covalent tethering of proteins to functional groups or solid surfaces” (PROMEGA CORPORATION, priority 2013, dated 2021)

Columns and labels:
[1] = test system: intracellular HDAC activity; test: Intracellular HDAC activity, non-lytic HDAC-Glo I/II assay in HEK293 and K562 cells; assay type: cell-based; details: PBI-5040 relative to SAHA, 2 h
Procedure: HEK293 cells were plated into a 96-well plate at 1×10^5 cell/ml, and 24 h later, the media was replaced with serum free media. K562 cells were plated in serum free media (96-well plate) at 2×10^5 cells/ml.

HaloTag® protein [2] = test: Binding efficiency/kinetics to HaloTag protein in cell lysate (chase with fluorescent HaloTag ligand, SDS-PAGE); details: SAHA-chloroalkane conjugates, 1 μM, 0-60 min; compared with PBI-5231 (O6)
Procedure: (§1) a) Binding efficiency to HaloTag® protein in lysate was measured by adding the methotrexate-chloroalkane conjugates to lysate from cells expressing a HaloTag® protein to a final concentration of 1 μM. Following 0-60 mins of binding, the reactions were chased with 1 μM fluorescent HaloTag® ligand. Unbound HaloTag® protein was detected through binding to the fluorescent HaloTag® ligand followed by analysis on SDS-PAGE gel and detection on a fluorescent gel scanner.
as §1, with “adding the dexamethasone-chloroalkane conjugates to” for “adding the methotrexate-chloroalkane conjugates to”, “the fluorescent HaloTag ligand followed” for “the fluorescent HaloTag® ligand followed”
a) Binding kinetics to HaloTag® protein in cell lysate was measured by adding the modified BIRB796-chloroalkane conjugates to lysate from cells expressing a HaloTag® protein at a final concentration of 1 μM. After 0-60 min of binding, the reactions were chased with 1 μM fluorescent HaloTag® ligand (Promega Corporation). Unbound HaloTag® protein was detected through binding to the fluorescent HaloTag® ligand followed by analysis on SDS-PAGE and detection on a fluorescent gel scanner.
Following 0-60 min of binding, the reactions were chased with 1 μM fluorescent HaloTag® ligand. Unbound HaloTag® protein was detected through binding to the fluorescent HaloTag® ligand followed by analysis on SDS-PAGE and detection on a fluorescent gel scanner.
a) Binding kinetics to HaloTag® protein in cell lysate was measured by adding the dasatinib-chloroalkane conjugates to lysate (final concentration of 1 μM) from cells expressing a HaloTag® protein. Following 0-60 min of binding, the reactions were chased with 1 μM fluorescent HaloTag® ligand. Unbound HaloTag® protein was detected through binding to the fluorescent HaloTag® ligand followed by analysis on SDS-PAGE and detection on a fluorescent gel scanner.

HaloTag® protein [3] = test: Binding efficiency/kinetics to HaloTag protein in cells (cell permeability; chase with fluorescent HaloTag ligand, SDS-PAGE); assay type: cell-based; details: SAHA-chloroalkane conjugates, 10 μM, 0-180 min; HaloTag localized to cytoplasm or nucleus; compared with PBI-5231 (O6)
Procedure: b) Binding efficiency to HaloTag® protein in cells was measured by adding the methotrexate-chloroalkane conjugates to cells expressing a HaloTag® protein to a final concentration of 10 μM. Following 0-120 mins of binding, the reactions were chased with 5 μM fluorescent HaloTag® ligand. Unbound HaloTag® protein was detected through binding to the fluorescent HaloTag® ligand followed by cell lysis, analysis on a SDS-PAGE gel and detection on a fluorescent gel scanner.
b) Binding efficiency to HaloTag® protein in cells was measured by adding the dexamethasone-chloroalkane conjugates to cells expressing a HaloTag® protein to a final concentration of 10 μM. Following 0-60 mins of binding, the reaction was chased with 5 μM fluorescent HaloTag ligand. Unbound HaloTag® protein was detected through binding to the fluorescent HaloTag® ligand followed by cell lysis, analysis on SDS-PAGE gel and detection on a fluorescent gel scanner.
b) Binding kinetics to HaloTag® protein in cells was measured by adding the modified BIRB796-chloroalkane conjugates to cells expressing a HaloTag® protein at a final concentration of 10 μM. Following 0-60 min of binding, the reactions were chased with 5 μM fluorescent HaloTag® ligand. Unbound HaloTag® protein was detected through binding to the fluorescent HaloTag® ligand followed by cell lysis, analysis on SDS-PAGE and detection on a fluorescent gel scanner.
Following 0-180 min of binding, the reactions were chased with 5 μM fluorescent HaloTag® ligand. Unbound HaloTag® protein was detected through binding to the fluorescent HaloTag® ligand followed by cell lysis, analysis on SDS-PAGE and detection on a fluorescent gel scanner.
b) Binding kinetics to HaloTag® protein in cells was measured by adding the dasatinib-chloroalkane conjugates (final concentration of 10 μM) to cells expressing a HaloTag protein which localized to the cytoplasm or the nucleus. Following 0-90 min of binding, the reactions were chased with 5 μM fluorescent HaloTag® ligand. Unbound HaloTag® protein was detected through binding to the fluorescent HaloTag® ligand followed by cell lysis, analysis on SDS-PAGE and detection on a fluorescent gel scanner.

[4] = test system: all known target of SAHA (HDAC1, HDAC2, HDAC3, HDAC6, HDAC8, HDAC10); test: Pull-down of endogenous targets from K562 cells onto HaloTag protein beads, Western blot and mass spec analysis; assay type: cell-based
Procedure: K562 cells were plated into 150 mm dishes at 1.66×10^6 cell/ml (total of 5×10^7 cells per dish). […] Following equilibrium binding of 2 h, the media was removed; cells were quickly washed with PBS; cells lysed in a detergent-based lysis buffer for 10 min and centrifuged at 3000×g for 1 min. Clear lysates were then added to 75 ul of settled paramagnetic HaloTag® protein beads and incubated with shaking for 15 min. […] The released targets were subjected to mass spec analysis (FIG. 14B) as well as western blot analysis (FIG. 14A) with anti-HDAC1 antibody (ABCAM), anti-HDAC2 antibody (ABCAM), anti-HDAC6 antibody (Millipore), anti-HDAC3 antibody (Thermo Fisher), anti-HDAC10 (ABCAM) and anti-HDAC8 antibody (Rockland).

## O=C(CCCCCCC(=O)Nc1ccc(CNC(=O)OCCOCCOCCOC(=O)NCCOCCOCCCCCCCl)cc1)NO [PBI-5040, SAHA-Carbamate]
[1]
  reduction in SAHA potency due to the chloroalkane modification: ~2 fold
HaloTag® protein [2]
  binding kinetics to HaloTag protein in cell lysate: significantly faster binding kinetics
HaloTag® protein [3]
  permeability/binding kinetics to HaloTag protein in cells: significantly faster permeability/binding kinetics
[4]; 20 uM, 2 h, beads 15 min, release with 400 μM SAHA
  pull-down of endogenous SAHA targets incl. low affinity (HDAC8) and low abundance (HDAC3) target: specifically pulled down
[4]; inferred from pull down of nuclear (HDAC1) and cytoplasmic (HDAC 6) proteins
  cellular permeability: high
